The values that follow come from article PMC12040169 (PLOS Biology, 2025).

Molecules are shown by their SMILES.

The nature of the data set: in vitro. As to conditions: human, hela cells, % viability.
The viability is a read-out of living cells in per cent, often relative to untreated cells. For the compound `O=C(O)c1ccc(CN2C(=O)COc3ccccc32)o1` [CBK270276], the viability at 28.5 h, 10 µM was found to be 104%.
For `Cc1oc(NC(=O)CN2CCN(c3ccc(F)cc3)CC2)c(C#N)c1C` [CBK305907], the viability at 28.5 h, 10 µM came to 86.7%.
Next, `O=C(NCc1ccncc1)c1ncoc1-c1ccc(F)cc1` [CBK282354]: 83.8%.
Next, `Nc1cccc(-c2cn([C@H]3C[C@@H](O)[C@@H](CO)O3)c(=O)[nH]c2=O)c1` [CBK201262]: 94.4%.
Next, `O=C(O)c1cccnc1SCc1cc2c(cc1Cl)OCO2` [CBK287178]: 93.9%.
In the case of `Cc1cccc(CC(=O)N2CCCC2c2ccnc3cc(C)nn23)c1` (stereo not shown) [CBK283472], the viability at 28.5 h, 10 µM was 105%.
Next, `Cc1c(Br)c(C(F)(F)F)nn1CC(=O)N1CCCC1` [CBK071473]: 92.9%; `N#Cc1c(O)nsc1Nc1ccc(Cl)cc1` [CBK009446]: 94.9%.
In the case of `COc1ccc2[nH]cc(C3CCN(C(=O)c4cc(C#N)c[nH]4)CC3)c2c1` [CBK305479], the viability at 28.5 h, 10 µM was 93.2%.
Next, `O=C(Nc1cccc(C(F)(F)F)c1)N[C@H]1[C@H](O)[C@@H](N2CCCC2)[C@@H]2OC[C@H]1O2` [CBK288828]: 105%.
Next, `CCCCOc1ccc(-c2cn(CC(N)=O)cn2)cc1` [CBK009035]: 110%; `CNCCCC1(c2ccccc2)SC(C)(C)c2ccccc21` (stereo not shown) [CBK015933C]: 90.6%; `O=C(Nc1ccc(F)cc1)c1ccccc1NS(=O)(=O)c1ccc(C(F)(F)F)cc1[N+](=O)[O-]` [CBK045439]: 108%.
The result for `COc1ccc(CN2CCC(N3CCCCCC3)CC2)cc1OC` [CBK264721G] reads 90.8%; that for `Cn1c(O)c(CCNc2cc(C3CCOC3)ncn2)cnc1=O` (stereo not shown) [CBK307648], 90.7%.
`COc1ccc(C(=O)Nc2ccccc2N2CCNCC2)cc1` [CBK029447T]: the viability at 28.5 h, 10 µM is 107%.
The result for `CCC(CC)C(=O)N(C)c1c(C)nc2ccc(C(=O)NCc3ccc(OC)cc3)cn12` [CBK146501] reads 97.9%; that for `Cc1nc(Nc2ccc(Cl)cc2)nc(Oc2ccccc2)n1` [CBK003915], 101%; that for `CC(NC(=O)N1CCC2(CC1)NC(=O)Cc1ccccc12)c1cccc2ccccc12` (stereo not shown) [CBK047280], 84%.
The result for `O=[N+]([O-])c1ccc(Oc2ccccc2)nc1` [CBK002726] reads 85.8%; that for `CC1(C)CC(NC(=O)c2cccc([N+](=O)[O-])c2)CC(C)(C)N1` [CBK262952C], 99.8%.
Next, `CC(Sc1nc2ccccc2c(=O)n1C)C(=O)N1CCOCC1` (stereo not shown) [CBK305031]: 88.5%.
With `O=C(NCCNC1CCC(c2ccccc2)CC1)c1ccc(F)cc1` (stereo not shown) [CBK266857], the viability at 28.5 h, 10 µM was determined as 88.2%.
Next, `CC(C)NC(=O)N[C@H]1CCN2C(=O)c3cc(-c4ccccc4F)ccc3NC(=O)[C@H]12` [CBK289335]: 84.2%; `CN(C)c1ccccc1-c1cc(N2CCN(S(=O)(=O)c3ccc(Cl)cc3)CC2)ncn1` [CBK037039]: 81.7%.
Next, `O=C(N[C@H]1C[C@H]2C(=O)Nc3ccccc3C(=O)N2C1)c1cccnc1` [CBK289356]: 110%.
Next, `Cc1ccc(NC(=O)NC(=O)C2CCN(CCc3ccc(F)cc3)CC2)cc1Cl` [CBK035047]: 89.5%.
In the case of `CCn1nc(C)c(C(C)NC(=O)c2ccnn2C(F)F)c1C` (stereo not shown) [CBK281535], the viability at 28.5 h, 10 µM came to 88.4%.
Next, `Cc1ccc(C(=O)c2coc3ccc(OCC(=O)O)cc23)cc1` [CBK263084]: 86.6%.
For the compound `CC(C)(C)C(=O)N[C@H]1C[C@@H](Cc2cc(CN3CCOCC3)on2)C1(C)C` [CBK289247], the viability at 28.5 h, 10 µM stood at 96.2%.
`CNc1snc(N2CCOCC2)c1C#N` [CBK011453]: the viability at 28.5 h, 10 µM worked out at 93%.
The result for `COc1ccccc1OCC(=O)N1CCC2(CCNC2)C1` (stereo not shown) [CBK156703C] reads 99.6%; that for `Cc1ccc(N2C(=O)CSC23C(=O)Nc2ccccc23)cc1Br` (stereo not shown) [CBK093472], 104%; that for `Cc1ccc(C(=O)Nc2c(C(=O)Nc3cccnc3)cnn2-c2ccccc2)cc1` [CBK263056], 92.4%.
Consider `C[N+]1([O-])CCN(c2nccn(CCOc3cc(F)c(F)cc3F)c2=O)CC1` [CBK081593], for which the viability at 28.5 h, 10 µM was determined as 101%.
Next, `Cc1ccccc1OCC(O)CN1CCN(CCN2C(=O)c3cccc4cccc(c34)C2=O)CC1` (stereo not shown) [CBK278321C]: 68.9%; `CCN1CCC(NC(=O)CSc2nc3ccccc3n2CCOC)CC1` [CBK306100]: 118%; `CCN(CC)c1c(C)nc2ccc(C(=O)NC3CCN(C)CC3)cn12` [CBK145965]: 98.7%.
The result for `C=CCn1c(COc2ccc(Cl)cc2)nnc1SCC(=O)O` [CBK263171] reads 105%; that for `CCOc1ccccc1NC(C)CC(=O)O` (stereo not shown) [CBK058826], 82.8%; that for `CCOC(=O)c1sc(-c2ccccc2)nc1O` [CBK074298], 96.9%.
For `COc1ccc([C@@]23CCCN(C(=O)Nc4ccc(C)c(F)c4)C[C@@H]2N(C)CC3)cc1OC` [CBK056680T], the viability at 28.5 h, 10 µM came out at 110%.
`C=C(C)Cn1c(SCC(=O)O)nnc1-c1ccccc1` [CBK262737]: the viability at 28.5 h, 10 µM was 91.9%.
For the compound `Cc1nn(CC(=O)NC(C)(C)C)c(=O)c2cc3ccsc3n12` [CBK284082], the viability at 28.5 h, 10 µM turned out to be 83.2%.
Next, `CSc1cccc(NC(=S)N2CCC(N(C)C(C)C)CC2)c1` [CBK294463]: 86.8%; `O=C(O)CNC(=O)CN1C(=O)c2ccccc2C1=O` [CBK264077]: 98.6%.
The result for `CC(C)NC(=O)N1Cc2nc[nH]c2C[C@H]1C(=O)NCc1ccco1` [CBK288974] reads 92.9%; that for `Cc1cccn2c(=O)cc(CN3CCc4c(nc(C5CC5)n4C)C3)nc12` [CBK305256], 99.2%; that for `O=C(c1ccc2ccccc2n1)N1CCC(Cc2ccccc2)CC1` [CBK200184], 96.4%.
Next, `COc1ccc(-c2c(-c3ccc(O)cc3O)n[nH]c2C)cc1OC` [CBK265552]: 81.7%; `COc1ccc([C@]23CN(C)C[C@H]2CCN(C(=O)Nc2ccc(Cl)c(F)c2)C3)cc1OC` [CBK081140T]: 98.3%.
For `O=C(Nc1ccc2n(c1=O)C[C@@H]1CNC[C@H]2C1)c1ccc(F)cc1` [CBK289078], the viability at 28.5 h, 10 µM was 98.4%.
The result for `O=C(Nc1ccccc1)c1cccc(S(=O)(=O)NCc2cccs2)c1` [CBK058153] reads 87.1%; that for `CN1CCN(C(=O)c2ccc(-c3cnc4[nH]c(=O)n(Cc5ccncc5)c4n3)cc2)CC1` [CBK064679], 101%.
Next, `NS(=O)(=O)c1ccc(NC(=S)NNC(=O)c2cc(Br)ccc2Cl)cc1` [CBK266970]: 89.3%; `O=C(O)c1[nH]c2ccccc2c1C(c1cc(Cl)cc([N+](=O)[O-])c1O)c1c(C(=O)O)[nH]c2ccccc12` [CBK267814]: 95.6%; `Cc1ccc(Cl)cc1NC(=O)CC1NCCNC1=O` (stereo not shown) [CBK267246]: 97%.
The result for `O=C(Nc1ccccc1)Nc1ccccc1C(=O)NCc1ccccc1` [CBK265338] reads 90.2%.
With `Cc1ncsc1CCOC(=O)N1C[C@@H](C)O[C@@H](C)C1` [CBK200418], the viability at 28.5 h, 10 µM was 96.3%.
Next, `Cc1nccn1CCC(=O)Nc1ccccc1Oc1ccc(F)cc1` [CBK281473]: 91.9%; `Nc1ncnc(NCCc2ccccc2)n1` [CBK262701]: 85%.
For the compound `O=C(c1ccc(-c2ccc(F)cc2)o1)N1CCC(n2c(=O)oc3ccccc32)CC1` [CBK286175], the viability at 28.5 h, 10 µM came out at 104%.
The result for `O=C(/C=C/c1cccc([N+](=O)[O-])c1)NC(=S)Nc1ccc(-c2nc3ccccc3[nH]2)cc1` [CBK264376] reads 102%; that for `O=C(c1nn2c(c1Br)NC(c1cccs1)CC2C(F)(F)F)N1CCCC1` (stereo not shown) [CBK307180], 88.7%; that for `O=C(C1CC1)N1C2CCC1CC(O)(Cn1ccc3ccncc31)C2` (stereo not shown) [CBK284652], 90.4%.
The result for `CC(C)(C)OC(=O)N(CCCN1CCN(c2ccc(F)cc2)CC1)c1ccccc1` [CBK016723] reads 89.2%.
Next, `Oc1ccc2c(c1)C(O)CC1(CCN(CC(O)c3ccc(-c4ccccc4)cc3)CC1)O2` (stereo not shown) [CBK286351]: 91.3%.
As for `CCOC(=O)c1[nH]c2ccccc2c1NS(=O)(=O)Cc1ccccc1[N+](=O)[O-]` [CBK047426], the viability at 28.5 h, 10 µM is 94.7%.
The result for `COc1ccccc1CN(C)C(C)=O` [CBK024120] reads 118%; that for `O=C(O)c1cc(S(=O)(=O)Nc2ccc(OCc3ccccc3)cc2)ccc1Br` [CBK297098], 113%; that for `CN(Cc1ccccc1NCCn1c(=O)oc2ccccc21)C1CCCCC1` [CBK296678], 78.1%.
Next, `CC(CCCC(C)(C)O)Nc1cncc(-c2ccc(C(N)=O)cc2)n1` (stereo not shown) [CBK066071]: 103%.
The result for `Cc1nc2c(C(=O)NCC(F)(F)F)cnn2c(C)c1Cc1cccc(C#N)c1` [CBK162093] reads 91.6%.
For `Cc1cc(OCCC#N)cc(C)c1Cl` [CBK015872], the viability at 28.5 h, 10 µM stood at 98.2%.
Consider `CCOC(=O)CN1CCC(Oc2nccnc2OC2CCCCC2)CC1` [CBK082867T], for which the viability at 28.5 h, 10 µM is 106%.
The result for `CS(=O)(=O)N(Cc1ccccc1)c1ccc(C(=O)Nc2ccc(-c3ccccc3)cc2)cc1` [CBK262754] reads 90.6%; that for `COC(=O)c1ccc2c(=O)n(CC(C)O)c(SC)nc2c1` (stereo not shown) [CBK305018], 88%; that for `FC(F)(F)c1ccnc(Sc2cccs2)n1` [CBK115245], 87.7%.
With `COc1ccc2[nH]c3c(c2c1)CCN(S(C)(=O)=O)C31CCN(CCOc2ccccc2)C1` (stereo not shown) [CBK063187T], the viability at 28.5 h, 10 µM came out at 92.9%.
